Source: US9687479B2, “Multisubstituted aromatic compounds as serine protease inhibitors” (VERSEON CORPORATION, priority 2013, dated 2017)

How the values were obtained:
[1] = target: Human thrombin (Homo sapiens (Human), UniProt P00734); assay: Thrombin protease activity inhibition assay (chromogenic substrate S-2238); type: biochemical; details: 3 nM thrombin, 125 μM S-2238, 10 min pre-incubation, RT
Procedure, shortened: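 Ten-point, three-fold serial dilutions of compound tested against 3 nM enzyme at RT in Tris buffer (0.05 M, pH 7.4) with 0.015 M NaCl and 0.01% PEG-8000.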

[2] = target: Human KLKB1 (Homo sapiens (Human), UniProt P03952); assay: KLKB1 kallikrein activity inhibition assay (chromogenic substrate S-2302); type: biochemical
Human KLKB1, sequence (P03952 391-638 limits assumed): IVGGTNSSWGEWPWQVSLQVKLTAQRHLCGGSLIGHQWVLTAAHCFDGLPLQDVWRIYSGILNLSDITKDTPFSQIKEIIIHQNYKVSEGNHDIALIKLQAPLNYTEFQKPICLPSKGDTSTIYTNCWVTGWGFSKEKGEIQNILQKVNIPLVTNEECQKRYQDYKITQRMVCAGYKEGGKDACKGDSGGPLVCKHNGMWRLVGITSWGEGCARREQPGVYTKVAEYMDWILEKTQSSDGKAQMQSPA
Human KLKB1, sequence (P03952 20-390 partner limits assumed): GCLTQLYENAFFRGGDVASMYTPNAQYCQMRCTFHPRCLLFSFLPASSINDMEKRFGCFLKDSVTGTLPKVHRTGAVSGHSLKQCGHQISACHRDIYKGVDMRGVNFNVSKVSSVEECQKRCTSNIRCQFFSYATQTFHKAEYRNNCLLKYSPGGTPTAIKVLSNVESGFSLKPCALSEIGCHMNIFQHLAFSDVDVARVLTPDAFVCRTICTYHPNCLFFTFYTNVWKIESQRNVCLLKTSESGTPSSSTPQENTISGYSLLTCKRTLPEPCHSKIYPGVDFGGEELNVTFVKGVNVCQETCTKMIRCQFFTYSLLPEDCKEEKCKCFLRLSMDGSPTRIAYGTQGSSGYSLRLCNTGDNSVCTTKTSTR
Experimental: The KLKB1 kallikrein activity reported herein (e.g., Tables B, C, and D) was obtained as follows. Human KLKB1 protein was obtained from Enzyme Research Labs. […] KLKB1 was assayed in buffer containing 0.05 M Tris (pH 7.4), 0.01 M NaCl and 0.2% w/v PEG-8000. The final concentration of enzyme used was 3 nM KLKB1. […] All assays were performed in 96-well microtiter plates at room temperature (RT). […] Inhibitor IC50 values were determined by adding test compound as ten point, three-fold serial dilutions in buffer solution, as known in the art. The plate was read at 10 minutes after substrate addition. The IC50 was calculated by plotting the percent (%) inhibition against compound concentration and fitting the data to a constrained four parameter sigmoidal curve, as known in the art.

Row | SMILES | IC50 [1] [nM] | IC50 ([2]; Table B) [nM] | IC50 ([2]; Table C) [nM] | IC50 ([2]; 3 nM KLKB1, 250 μM S-2302, 10 min pre-incubation, RT) [nM]
1 | CC(C)(C)C(=O)n1nc(-c2cccn(Cc3ccco3)c2=O)cc1NCc1ccc(Cl)s1 [Cmpd 77, 3-(5-[(5-chlorothiophen-2-yl)methyl]amino-1-(2,2-dimethylpropanoyl)-1H-pyrazol-3-yl)-1-(furan-2-ylmethyl)-1,2-dihydropyridin-2-one] | < 100 | > 100000 |  | 
2 | Cn1cccc(-c2cc(NCc3ccc(Cl)s3)n(C(=O)c3ccccc3)n2)c1=O [Cmpd 73, 3-(1-benzoyl-5-[(5-chlorothiophen-2-yl)methyl]amino-1H-pyrazol-3-yl)-1-methyl-1,2-dihydropyridin-2-one] | < 100 | > 100000 |  | 
3 | O=C(c1ccc(N2CCOCC2)cc1)n1nc(-c2cccn(Cc3ccccc3)c2=O)cc1NCc1ccc(Cl)s1 [Cmpd 53, 1-benzyl-3-(5-[(5-chlorothiophen-2-yl)methyl]amino-1-[4-(morpholin-4-yl)phenyl]carbonyl-1H-pyrazol-3-yl)-1,2-dihydropyridin-2-one] | < 100 | > 100000 |  | 
4 | COCC(C)(C)C(=O)n1nc(-c2cccn(Cc3cccnc3)c2=O)cc1NCc1ccc(Cl)s1 [Cmpd 102, 3-(5-[(5-chlorothiophen-2-yl)methyl]amino-1-(3-methoxy-2,2-dimethylpropanoyl)-1H-pyrazol-3-yl)-1-(pyridin-3-ylmethyl)-1,2-dihydropyridin-2-one] | < 100 | 10000 to 100000 |  | 
5 | O=C(c1ccoc1)n1nc(-c2cccn(Cc3ccsc3)c2=O)cc1NCc1ccc(Cl)s1 [Cmpd 179, 3-(5-[(5-chlorothiophen-2-yl)methyl]amino-1-[(furan-3-yl)carbonyl]-1H-pyrazol-3-yl)-1-(thiophen-3-ylmethyl)-1,2-dihydropyridin-2-one] | < 100 | 10000 to 100000 |  | 
6 | COCCn1cccc(-c2cc(NCc3ccc(Cl)s3)n(C(=O)c3ccsc3)n2)c1=O [Cmpd 194, 3-(5-[(5-chlorothiophen-2-yl)methyl]amino-1-[(thiophen-3-yl)carbonyl]-1H-pyrazol-3-yl)-1-(2-methoxyethyl)-1,2-dihydropyridin-2-one] | < 100 | 100 to 1000 |  | 
7 | COc1ccccc1C(=O)n1nc(-c2cccn(Cc3cccnc3)c2=O)cc1NCc1ccc(Cl)s1 [Cmpd 140, 3-(5-[(5-chlorothiophen-2-yl)methyl]amino-1-[(2-methoxyphenyl)carbonyl]-1H-pyrazol-3-yl)-1-(pyridin-3-ylmethyl)-1,2-dihydropyridin-2-one] | < 100 | 100 to 1000 |  | 
8 | COCC(C)(C)C(=O)n1nc(-c2cccn(Cc3ccsc3)c2=O)cc1NCc1ccc(Cl)s1 [Cmpd 106, 3-(5-[(5-chlorothiophen-2-yl)methyl]amino-1-(3-methoxy-2,2-dimethylpropanoyl)-1H-pyrazol-3-yl)-1-(thiophen-3-ylmethyl)-1,2-dihydropyridin-2-one] | < 100 | > 100000 |  | 
9 | O=C(c1cccs1)n1nc(-c2cccn(Cc3ccccc3)c2=O)cc1NCc1ccc(Cl)s1 [Cmpd 51, 1-benzyl-3-(5-[(5-chlorothiophen-2-yl)methyl]amino-1-[(thiophen-2-yl)carbonyl]-1H-pyrazol-3-yl)-1,2-dihydropyridin-2-one] | < 100 | > 100000 |  | 
10 | COCC(C)(C)C(=O)n1nc(-c2cccn(Cc3ncccn3)c2=O)cc1NCc1ccc(Cl)s1 [Cmpd 104, 3-(5-[(5-chlorothiophen-2-yl)methyl]amino-1-(3-methoxy-2,2-dimethylpropanoyl)-1H-pyrazol-3-yl)-1-(pyrimidin-2-ylmethyl)-1,2-dihydropyridin-2-one] | < 100 | 1000 to 10000 |  | 
11 | COCC(C)(C)C(=O)n1nc(-c2cccn(Cc3cccnn3)c2=O)cc1NCc1ccc(Cl)s1 [Cmpd 100, 3-(5-[(5-chlorothiophen-2-yl)methyl]amino-1-(3-methoxy-2,2-dimethylpropanoyl)-1H-pyrazol-3-yl)-1-(pyridazin-3-ylmethyl)-1,2-dihydropyridin-2-one] | < 100 | 1000 to 10000 |  | 
12 | COCC(C)(C)C(=O)n1nc(-c2cccn(Cc3cccs3)c2=O)cc1NCc1ccc(Cl)s1 [Cmpd 105, 3-(5-[(5-chlorothiophen-2-yl)methyl]amino-1-(3-methoxy-2,2-dimethylpropanoyl)-1H-pyrazol-3-yl)-1-(thiophen-2-ylmethyl)-1,2-dihydropyridin-2-one] | < 100 | > 100000 |  | 
13 | CC1(C(=O)n2nc(-c3cccn(Cc4ccccc4)c3=O)cc2NCc2ccc(Cl)s2)CCOCC1 [Cmpd 48, 1-benzyl-3-(5-[(5-chlorothiophen-2-yl)methyl]amino-1-[(4-methyloxan-4-yl)carbonyl]-1H-pyrazol-3-yl)-1,2-dihydropyridin-2-one] | < 100 | > 100000 |  | 
14 | O=C(c1ccsc1)n1nc(-c2cccn(Cc3ncccn3)c2=O)cc1NCc1ccc(Cl)s1 [Cmpd 201, 3-(5-[(5-chlorothiophen-2-yl)methyl]amino-1-[(thiophen-3-yl)carbonyl]-1H-pyrazol-3-yl)-1-(pyrimidin-2-ylmethyl)-1,2-dihydropyridin-2-one] | < 100 | 100 to 1000 |  | 
15 | O=C(c1ccsc1)n1nc(-c2cccn(Cc3ccccc3)c2=O)cc1NCc1ccc(Cl)s1 [Cmpd 52, 1-benzyl-3-(5-[(5-chlorothiophen-2-yl)methyl]amino-1-[(thiophen-3-yl)carbonyl]-1H-pyrazol-3-yl)-1,2-dihydropyridin-2-one] | < 100 | 100 to 1000 |  | 
16 | COCCn1cccc(-c2cc(NCc3ccc(Cl)s3)n(C(=O)c3ccco3)n2)c1=O [Cmpd 160, 3-(5-[(5-chlorothiophen-2-yl)methyl]amino-1-[(furan-2-yl)carbonyl]-1H-pyrazol-3-yl)-1-(2-methoxyethyl)-1,2-dihydropyridin-2-one] | > 100000 | 100 to 1000 |  | 

Row | SMILES | IC50 [1] [nM] | IC50 ([2]; Table B) [nM] | IC50 ([2]; Table C) [nM] | IC50 ([2]; 3 nM KLKB1, 250 μM S-2302, 10 min pre-incubation, RT) [nM]
17 | O=C(c1ccc(N2CCOCC2)cc1)n1nc(-c2cccn(CCN3CCOCC3)c2=O)cc1NCc1ccc(Cl)s1 [Cmpd 218, 3-(5-[(5-chlorothiophen-2-yl)methyl]amino-1-[4-(morpholin-4-yl)phenyl]carbonyl-1H-pyrazol-3-yl)-1-[2-(morpholin-4-yl)ethyl]-1,2-dihydropyridin-2-one] | < 100 | 100 to 1000 |  | 
18 | O=C(c1ccco1)n1nc(-c2ccc[nH]c2=O)cc1NCc1ccccc1 [Cmpd 237, 3-[5-(benzylamino)-1-[(furan-2-yl)carbonyl]-1H-pyrazol-3-yl]-1,2-dihydropyridin-2-one] | 100 to 1000 | 10000 to 100000 |  | 
19 | O=C(c1ccsc1)n1nc(-c2cccn(Cc3ccccn3)c2=O)cc1NCc1ccc(Cl)s1 [Cmpd 198, 3-(5-[(5-chlorothiophen-2-yl)methyl]amino-1-[(thiophen-3-yl)carbonyl]-1H-pyrazol-3-yl)-1-(pyridin-2-ylmethyl)-1,2-dihydropyridin-2-one] | < 100 | 100 to 1000 |  | 
20 | COCCn1cccc(-c2cc(NCc3ccc(Cl)s3)n(C(=O)c3ccc(OC)cc3OC)n2)c1=O [Cmpd 122, 3-(5-[(5-chlorothiophen-2-yl)methyl]amino-1-[(2,4-dimethoxyphenyl)carbonyl]-1H-pyrazol-3-yl)-1-(2-methoxyethyl)-1,2-dihydropyridin-2-one] | < 100 | 1000 to 10000 |  | 
21 | CC(C)(CO)C(=O)n1nc(-c2cccn(Cc3cccnc3)c2=O)cc1NCc1ccc(Cl)s1 [Cmpd 94, 3-(5-[(5-chlorothiophen-2-yl)methyl]amino-1-(3-hydroxy-2,2-dimethylpropanoyl)-1H-pyrazol-3-yl)-1-(pyridin-3-ylmethyl)-1,2-dihydropyridin-2-one] | < 100 | 1000 to 10000 |  | 
22 | CC(C)(CO)C(=O)n1nc(-c2cccn(Cc3ccco3)c2=O)cc1NCc1ccc(Cl)s1 [Cmpd 93, 3-(5-[(5-chlorothiophen-2-yl)methyl]amino-1-(3-hydroxy-2,2-dimethylpropanoyl)-1H-pyrazol-3-yl)-1-(furan-2-ylmethyl)-1,2-dihydropyridin-2-one] | < 100 | 10000 to 100000 |  | 
23 | O=C(c1ccc(N2CCOCC2)cc1)n1nc(-c2cccn(Cc3ccncc3)c2=O)cc1NCc1ccc(Cl)s1 [Cmpd 214, 3-(5-[(5-chlorothiophen-2-yl)methyl]amino-1-[4-(morpholin-4-yl)phenyl]carbonyl-1H-pyrazol-3-yl)-1-(pyridin-4-ylmethyl)-1,2-dihydropyridin-2-one] | < 100 | 100 to 1000 |  | 
24 | COCCn1cccc(-c2cc(NCc3ccc(Cl)s3)n(C(=O)c3ccc(N4CCOCC4)cc3)n2)c1=O [Cmpd 208, 3-(5-[(5-chlorothiophen-2-yl)methyl]amino-1-[4-(morpholin-4-yl)phenyl]carbonyl-1H-pyrazol-3-yl)-1-(2-methoxyethyl)-1,2-dihydropyridin-2-one] | < 100 | 1000 to 10000 |  | 
25 | O=C(c1cccs1)n1nc(-c2ccncc2)nc1NCc1ccc(F)cc1 [Cmpd 378] |  |  | > 100000 | 
26 | COc1ccccc1C(=O)n1nc(-c2cccnc2)nc1NCc1ccc(F)cc1 [Cmpd 368] |  |  | 1000 to 10000 | 
27 | CCC(=O)n1nc(-c2ccncc2)nc1NCc1ccccc1 [Cmpd 356] |  |  | > 100000 | 
28 | COc1ccccc1C(=O)n1nc(-c2ccccn2)cc1NCc1cccs1 [Cmpd 278] |  | > 100000 |  | 
29 | Cc1cc(N(C)c2cccc(F)c2)nc(N[C@@H]2CCc3c(N)cccc3C2)n1 [Cmpd 420, 2-N-[(2R)-5-amino-1,2,3,4-tetrahydronaphthalen-2-yl]-4-N-(3-fluorophenyl)-4-N,6-dimethylpyrimidine-2,4-diamine] |  |  |  | > 100000
30 | COc1ccccc1C(=O)n1nc(C2CCCO2)nc1NCc1ccc(Cl)s1 (stereo not shown) [Cmpd 386] |  |  | 100 to 1000 | 
31 | O=C(Cc1ccccc1)n1nc(-c2ccccn2)nc1NCc1ccc(F)cc1 [Cmpd 303] |  |  | 1000 to 10000 | 
